The supplement of paper PMC11451515

Columns and labels:
Test in all cases: AUC of viability dose-response curve (% viability x log10 dose units); higher = less sensitive
Details in all cases: 48 h
[1] = system: NOMO1
Method in brief: (§1)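 Library compounds in DMSO were applied for 48 h at 37°C at 11 threefold doses (47 μM to 0.79 nM) to medium-adapted leukemia cells in 1536-well plates holding 500 or 1000 cells/well. Luminescence from CellTiter-Glo One was normalised plate by plate against DMSO and cell-free wells. Area under the curve came from trapezoidal integration of a log-logistic fit, after scaling curves that rose above full viability and discarding those that failed quality control. The fit had four parameters and used log10 doses.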

[2] = system: SEM cells
Method in brief: as §1

[3] = system: P12-Ichikawa
Method in brief: as §1

[4] = RPMI 5 mM glucose + 10% dialyzed FBS

SMILES: O=[N+]([O-])c1cn2c(n1)OC[C@@H](OCc1ccc(OC(F)(F)F)cc1)C2
- AUC of viability dose-response curve ([1]; HPLM + 10% dialyzed FBS): 454
- AUC of viability dose-response curve ([1]; RPMI 5 mM glucose + 10% FBS): 459
- AUC of viability dose-response curve [1, 4]: 470
- AUC of viability dose-response curve ([2]; HPLM + 10% dialyzed FBS): 444
- AUC of viability dose-response curve ([2]; RPMI 5 mM glucose + 10% FBS): 466
- AUC of viability dose-response curve [2, 4]: 455
- AUC of viability dose-response curve ([3]; HPLM + 10% dialyzed FBS): 450
- AUC of viability dose-response curve ([3]; RPMI 5 mM glucose + 10% FBS): 453
- AUC of viability dose-response curve [3, 4]: 458

SMILES: COCCOC(=O)C/1=C(C)/NC/2=C(C1C3=CC=CC(=C3)O)/C(=O)CC(C2)C4=C(OC)C=CC=C4 (configuration not stated)
- AUC of viability dose-response curve ([1]; HPLM + 10% dialyzed FBS): 454
- AUC of viability dose-response curve ([1]; RPMI 5 mM glucose + 10% FBS): 469
- AUC of viability dose-response curve [1, 4]: 467
- AUC of viability dose-response curve ([2]; HPLM + 10% dialyzed FBS): 425
- AUC of viability dose-response curve ([2]; RPMI 5 mM glucose + 10% FBS): 415
- AUC of viability dose-response curve [2, 4]: 413
- AUC of viability dose-response curve ([3]; HPLM + 10% dialyzed FBS): 450
- AUC of viability dose-response curve ([3]; RPMI 5 mM glucose + 10% FBS): 451
- AUC of viability dose-response curve [3, 4]: 448

SMILES: Fc1ccc(C(c2ccc(F)cc2)N2CCN(C/C=C/c3ccccc3)CC2)cc1
- AUC of viability dose-response curve ([1]; HPLM + 10% dialyzed FBS): 432
- AUC of viability dose-response curve ([1]; RPMI 5 mM glucose + 10% FBS): 467
- AUC of viability dose-response curve [1, 4]: 457
- AUC of viability dose-response curve ([2]; HPLM + 10% dialyzed FBS): 404
- AUC of viability dose-response curve ([2]; RPMI 5 mM glucose + 10% FBS): 392
- AUC of viability dose-response curve [2, 4]: 424
- AUC of viability dose-response curve ([3]; HPLM + 10% dialyzed FBS): 456
- AUC of viability dose-response curve ([3]; RPMI 5 mM glucose + 10% FBS): 462
- AUC of viability dose-response curve [3, 4]: 447

SMILES: CC1(C)[C@@H](O[C@H]2O[C@H](C(=O)O)[C@@H](O)[C@H](O)[C@H]2O[C@@H]2O[C@H](C(=O)O)[C@@H](O)[C@H](O)[C@H]2O)CC[C@]2(C)[C@H]3C(=O)C=C4[C@@H]5C[C@@](C)(C(=O)O)CC[C@]5(C)CC[C@@]4(C)[C@]3(C)CC[C@@H]12
- AUC of viability dose-response curve ([1]; HPLM + 10% dialyzed FBS): 407
- AUC of viability dose-response curve ([1]; RPMI 5 mM glucose + 10% FBS): 455
- AUC of viability dose-response curve [1, 4]: 452
- AUC of viability dose-response curve ([2]; HPLM + 10% dialyzed FBS): 383
- AUC of viability dose-response curve ([2]; RPMI 5 mM glucose + 10% FBS): 437
- AUC of viability dose-response curve [2, 4]: 450
- AUC of viability dose-response curve ([3]; HPLM + 10% dialyzed FBS): 473
- AUC of viability dose-response curve ([3]; RPMI 5 mM glucose + 10% FBS): 468
- AUC of viability dose-response curve [3, 4]: 470

SMILES: CCOC(=O)C/1=C(C)/NC(=S)NC1C2=CC=CC(=C2)O (configuration not stated)
- AUC of viability dose-response curve ([1]; HPLM + 10% dialyzed FBS): 286
- AUC of viability dose-response curve ([1]; RPMI 5 mM glucose + 10% FBS): 272
- AUC of viability dose-response curve [1, 4]: 300
- AUC of viability dose-response curve ([2]; HPLM + 10% dialyzed FBS): 242
- AUC of viability dose-response curve ([2]; RPMI 5 mM glucose + 10% FBS): 242
- AUC of viability dose-response curve [2, 4]: 263
- AUC of viability dose-response curve ([3]; HPLM + 10% dialyzed FBS): 251
- AUC of viability dose-response curve ([3]; RPMI 5 mM glucose + 10% FBS): 246
- AUC of viability dose-response curve [3, 4]: 281

SMILES: FC(F)(F)c1ccc(Nc2nc3cc(Oc4ccnc(-c5ncc(C(F)(F)F)[nH]5)c4)ccc3[nH]2)cc1
- AUC of viability dose-response curve ([1]; HPLM + 10% dialyzed FBS): 472
- AUC of viability dose-response curve ([1]; RPMI 5 mM glucose + 10% FBS): 466
- AUC of viability dose-response curve [1, 4]: 476
- AUC of viability dose-response curve ([2]; HPLM + 10% dialyzed FBS): 442
- AUC of viability dose-response curve ([2]; RPMI 5 mM glucose + 10% FBS): 439
- AUC of viability dose-response curve [2, 4]: 420
- AUC of viability dose-response curve ([3]; HPLM + 10% dialyzed FBS): 465
- AUC of viability dose-response curve ([3]; RPMI 5 mM glucose + 10% FBS): 460
- AUC of viability dose-response curve [3, 4]: 458

SMILES: COc1ccc(/C=C\c2cc(OC)c(OC)c(OC)c2)cc1O
- AUC of viability dose-response curve ([1]; HPLM + 10% dialyzed FBS): 197
- AUC of viability dose-response curve ([1]; RPMI 5 mM glucose + 10% FBS): 126
- AUC of viability dose-response curve [1, 4]: 155
- AUC of viability dose-response curve ([2]; HPLM + 10% dialyzed FBS): 85.1
- AUC of viability dose-response curve ([2]; RPMI 5 mM glucose + 10% FBS): 50.9
- AUC of viability dose-response curve [2, 4]: 70
- AUC of viability dose-response curve ([3]; HPLM + 10% dialyzed FBS): 48.7
- AUC of viability dose-response curve ([3]; RPMI 5 mM glucose + 10% FBS): 57
- AUC of viability dose-response curve [3, 4]: 71.5

SMILES: Cc1ccc(NC(=O)C2(c3ccc4c(c3)OC(F)(F)O4)CC2)nc1-c1cccc(C(=O)O)c1
- AUC of viability dose-response curve ([1]; HPLM + 10% dialyzed FBS): 252
- AUC of viability dose-response curve ([1]; RPMI 5 mM glucose + 10% FBS): 246
- AUC of viability dose-response curve [1, 4]: 264
- AUC of viability dose-response curve ([2]; HPLM + 10% dialyzed FBS): 241
- AUC of viability dose-response curve ([2]; RPMI 5 mM glucose + 10% FBS): 202
- AUC of viability dose-response curve [2, 4]: 232
- AUC of viability dose-response curve ([3]; HPLM + 10% dialyzed FBS): 268
- AUC of viability dose-response curve ([3]; RPMI 5 mM glucose + 10% FBS): 253
- AUC of viability dose-response curve [3, 4]: 260

SMILES: CCC[C@@H]1C[C@@H](C(=O)N[C@@H]([C@H]2O[C@H](SC)[C@H](O)[C@@H](O)[C@H]2O)[C@@H](C)O)N(C)C1.Cl
- AUC of viability dose-response curve ([1]; HPLM + 10% dialyzed FBS): 428
- AUC of viability dose-response curve ([1]; RPMI 5 mM glucose + 10% FBS): 463
- AUC of viability dose-response curve [1, 4]: 457
- AUC of viability dose-response curve ([2]; HPLM + 10% dialyzed FBS): 471
- AUC of viability dose-response curve ([2]; RPMI 5 mM glucose + 10% FBS): 473
- AUC of viability dose-response curve [2, 4]: 465
- AUC of viability dose-response curve ([3]; HPLM + 10% dialyzed FBS): 448
- AUC of viability dose-response curve ([3]; RPMI 5 mM glucose + 10% FBS): 438
- AUC of viability dose-response curve [3, 4]: 399

SMILES: C[N]1C=NC=C1[C@@](N)(C2=CC=C(Cl)C=C2)C3=CC=C4N(C)C(=O)\C=C(\C5=CC=CC(=C5)Cl)C4=C3
- AUC of viability dose-response curve ([1]; HPLM + 10% dialyzed FBS): 398
- AUC of viability dose-response curve ([1]; RPMI 5 mM glucose + 10% FBS): 430
- AUC of viability dose-response curve [1, 4]: 401
- AUC of viability dose-response curve ([2]; HPLM + 10% dialyzed FBS): 284
- AUC of viability dose-response curve ([2]; RPMI 5 mM glucose + 10% FBS): 279
- AUC of viability dose-response curve [2, 4]: 342
- AUC of viability dose-response curve ([3]; HPLM + 10% dialyzed FBS): 377
- AUC of viability dose-response curve ([3]; RPMI 5 mM glucose + 10% FBS): 352
- AUC of viability dose-response curve [3, 4]: 376

SMILES: O=C(Cc1cccc(OC(F)(F)F)c1)Nc1ccc(CCCCc2nnc(NC(=O)Cc3ccccn3)s2)nn1
- AUC of viability dose-response curve ([1]; HPLM + 10% dialyzed FBS): 407
- AUC of viability dose-response curve ([1]; RPMI 5 mM glucose + 10% FBS): 388
- AUC of viability dose-response curve [1, 4]: 394
- AUC of viability dose-response curve ([2]; HPLM + 10% dialyzed FBS): 381
- AUC of viability dose-response curve ([2]; RPMI 5 mM glucose + 10% FBS): 276
- AUC of viability dose-response curve [2, 4]: 277
- AUC of viability dose-response curve ([3]; HPLM + 10% dialyzed FBS): 426
- AUC of viability dose-response curve ([3]; RPMI 5 mM glucose + 10% FBS): 386
- AUC of viability dose-response curve [3, 4]: 387

SMILES: CN1CCCN(C(=O)c2cccc(-c3ccc(/C=C4/C(=O)Nc5ccc(Cl)cc54)o3)c2)CC1
- AUC of viability dose-response curve ([1]; HPLM + 10% dialyzed FBS): 399
- AUC of viability dose-response curve ([1]; RPMI 5 mM glucose + 10% FBS): 446
- AUC of viability dose-response curve [1, 4]: 436
- AUC of viability dose-response curve ([2]; HPLM + 10% dialyzed FBS): 362
- AUC of viability dose-response curve ([2]; RPMI 5 mM glucose + 10% FBS): 324
- AUC of viability dose-response curve [2, 4]: 332
- AUC of viability dose-response curve ([3]; HPLM + 10% dialyzed FBS): 419
- AUC of viability dose-response curve ([3]; RPMI 5 mM glucose + 10% FBS): 372
- AUC of viability dose-response curve [3, 4]: 396

SMILES: O=C1NC(=O)[C@@H](c2cn3c4c(cccc24)CCC3)[C@@H]1c1c[nH]c2ccccc12
- AUC of viability dose-response curve ([1]; HPLM + 10% dialyzed FBS): 367
- AUC of viability dose-response curve ([1]; RPMI 5 mM glucose + 10% FBS): 363
- AUC of viability dose-response curve [1, 4]: 379
- AUC of viability dose-response curve ([2]; HPLM + 10% dialyzed FBS): 345
- AUC of viability dose-response curve ([2]; RPMI 5 mM glucose + 10% FBS): 317
- AUC of viability dose-response curve [2, 4]: 348
- AUC of viability dose-response curve ([3]; HPLM + 10% dialyzed FBS): 358
- AUC of viability dose-response curve ([3]; RPMI 5 mM glucose + 10% FBS): 344
- AUC of viability dose-response curve [3, 4]: 380
